Measurements as given in PubChem BioAssay AID977613 (Broad Institute, 2014).
Activity calls are given as the source filed them. The rule behind the calls is not given here.

System: Broad 7084-01 inhibitor HTS, set 2
Assay: inhibitors in Broad screen 7084-01, set 2 (AID 977613);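 note: host cells are infected with parasite promastigotes that become internalized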

Row | Structure (SMILES) | active concentration
1 | O=C(C1CCCCC1)N1CC(=O)N2[C@H](CO)[C@@H](c3ccc(-c4ccccc4F)cc3)[C@@H]2C1 | > 10 µM (inactive)
2 | COCC(=O)N1[C@H](C(=O)Nc2ccccc2)[C@@H](CO)[C@@H]2Cn3c(ccc(-c4cccnc4)c3=O)[C@@H]21 | > 10 µM (inactive)
3 | N#C[C@@H]1[C@@H](c2ccccc2-c2cccc(F)c2)[C@@H](CO)N1C(=O)C1CC1 | > 10 µM (inactive)
4 | O=C(C[C@@H]1CC[C@H]2[C@@H](COC[C@@H](O)CN2C(=O)Nc2cc(Cl)cc(Cl)c2)O1)NCC1CCCCC1 | > 10 µM (inactive)
5 | CN(C)C(=O)c1cccc(-c2ccc([C@H]3[C@H]4CN(CC5CCOCC5)CCCCN4[C@H]3CO)cc2)c1 | > 10 µM (inactive)
6 | N#C[C@@H]1[C@H](c2ccccc2C2=CCCC2)[C@@H](CO)N1C(=O)CN1CCOCC1 | > 10 µM (inactive)
7 | N#C[C@H]1[C@H](c2ccccc2C2=CCCCC2)[C@H](CO)N1C(=O)c1cccc(F)c1 | > 10 µM (inactive)
8 | CCCNC(=O)N1[C@H](CO)[C@H](c2ccccc2-c2ccc(C)cc2)[C@@H]1C#N | > 10 µM (inactive)
9 | N#C[C@@H]1[C@@H](c2ccccc2-c2ccccc2F)[C@@H](CO)N1C(=O)Cc1ccccc1 | > 10 µM (inactive)
10 | CN(C)CC(=O)N1CCCCN2[C@H](C1)[C@@H](c1ccc(/C=C/c3ccccc3)cc1)[C@@H]2CO | > 10 µM (inactive)
11 | COc1ccccc1C(=O)Nc1ccc2c(c1)C(=O)N(C)[C@@H]1CC[C@@H](CC(=O)NCCc3ccncc3)O[C@H]1CO2 | > 10 µM (inactive)
12 | Cn1cnc(CCNC(=O)C[C@@H]2CC[C@H]3[C@@H](COC[C@@H](O)CN3C(=O)C3CC3)O2)c1 | > 10 µM (inactive)
13 | COc1ccc2c3c([nH]c2c1)[C@@H](CO)N(C(=O)CN(C)C)CC31CCN(Cc2cncnc2)CC1 | > 10 µM (inactive)
14 | N#C[C@H]1[C@@H](c2ccccc2C2=CCCC2)[C@H](CO)N1S(=O)(=O)c1ccccc1 | > 10 µM (inactive)
15 | CN1C(=O)c2cc(NC(=O)Nc3ccccc3Cl)ccc2OC[C@H]2O[C@@H](CC(=O)NCCCN3CCOCC3)CC[C@@H]21 | > 10 µM (inactive)
16 | O=C(CC1CC1)N1CC(=O)N2[C@H](CO)[C@@H](c3ccc(/C=C/c4ccccc4)cc3)[C@@H]2C1 | > 10 µM (inactive)
17 | O=C(c1cccc(F)c1)N1CCCCN2[C@H](C1)[C@@H](c1ccc(C#CC3(O)CCCC3)cc1)[C@@H]2CO | > 10 µM (inactive)
18 | Cc1nn(C)cc1NC(=O)C[C@H]1CC[C@H]2[C@@H](COc3ccc(NC(=O)C4CCOCC4)cc3C(=O)N2C)O1 | > 10 µM (inactive)
19 | CC(C)NC(=O)Nc1ccc2c(c1)C(=O)N(C)[C@H]1CC[C@@H](CC(=O)NCc3ccc(F)cc3)O[C@H]1CO2 | > 10 µM (inactive)
20 | O=C(Nc1ccccc1)N1CC(=O)N2[C@H](C1)[C@@H](c1ccc(C#CC3CCCCC3)cc1)[C@@H]2CO | > 10 µM (inactive)
21 | O=C(Nc1ccccc1)N1C[C@H]2[C@@H](c3ccccc31)[C@H](CO)N2Cc1ccccc1Cl | > 10 µM (inactive)
22 | O=C(C1CCC1)N1[C@H](CO)[C@@H](c2ccccc2)C12CN(CCC(F)(F)F)C2 | > 10 µM (inactive)
23 | O=C(C[C@H]1CC[C@H]2[C@@H](COC[C@H](O)CN2Cc2cccc(F)c2)O1)NCc1cccc(F)c1 | > 10 µM (inactive)
24 | CC(C)C#Cc1ccc([C@H]2[C@@H](CO)N3C(=O)CN(C(=O)Cc4ccccc4)C[C@H]23)cc1 | > 10 µM (inactive)

Row | Structure (SMILES) | active concentration
25 | O=C(C[C@@H]1CC[C@H]2[C@@H](COC[C@H](O)CN2Cc2ccccc2)O1)NCCc1ccccc1 | > 10 µM (inactive)
26 | COc1cccc(S(=O)(=O)N2CCCCN3[C@H](C2)[C@H](c2ccc(C#CCC(C)C)cc2)[C@@H]3CO)c1 | > 10 µM (inactive)
27 | C/C=C/c1ccc([C@@H]2[C@@H](CO)N3C(=O)CN(S(=O)(=O)c4ccccc4)C[C@H]23)cc1 | > 10 µM (inactive)
28 | CC(=O)N1CC[C@@H]2[C@@H](CO)N(C)c3ccc(-c4ccc(C#N)cc4)cc3[C@@H]21 | > 10 µM (inactive)
29 | O=C(c1ccccn1)N1CC[C@@H]2[C@H](CO)Nc3ccc(Br)cc3[C@@H]21 | > 10 µM (inactive)
30 | CC(C)C#Cc1ccc([C@H]2[C@H](CO)N3C(=O)CN(C(=O)c4ccc5c(c4)OCO5)C[C@@H]23)cc1 | > 10 µM (inactive)
31 | O=C(Nc1nccs1)[C@@H]1[C@@H](CO)[C@@H]2Cn3c(cccc3=O)[C@H]1N2C(=O)C1CCCC1 | > 10 µM (inactive)
32 | C/C=C/c1ccc([C@@H]2[C@H](CO)N(S(=O)(=O)CC)C23CN(C(C)=O)C3)cc1 | > 10 µM (inactive)
33 | COc1cccc(-c2ccccc2[C@H]2[C@@H](C#N)N(C(=O)c3ccccn3)[C@@H]2CO)c1 | > 10 µM (inactive)
34 | O=C(c1ccncc1)N1C[C@H]2[C@@H](c3ccccc31)[C@@H](CO)N2Cc1ccccc1F | > 10 µM (inactive)
35 | O=C(c1ccc2c(c1)OCO2)N1C[C@@H]2[C@H](c3ccccc31)[C@H](CO)N2C(=O)CC1CC1 | > 10 µM (inactive)
36 | CN(C)C(=O)C[C@H]1CC[C@@H]2[C@H](COC[C@@H](O)CN2C(=O)C2CC2)O1 | > 10 µM (inactive)
37 | C/C=C/c1ccccc1[C@H]1[C@@H](CO)N(C(=O)NC2CCCCC2)[C@H]1C#N | > 10 µM (inactive)
38 | CCC(=O)N1CC2(C1)[C@@H](c1ccccc1)[C@@H](CO)N2C(=O)NC(C)C | > 10 µM (inactive)
39 | COc1ccc(NC(=O)N2CC(=O)N3[C@H](CO)[C@H](c4ccc(Br)cc4)[C@@H]3C2)cc1 | > 10 µM (inactive)
40 | COc1cccc(S(=O)(=O)N2CCCCN3[C@H](CO)[C@H](c4ccc(C#CCC(C)C)cc4)[C@@H]3C2)c1 | > 10 µM (inactive)
41 | COc1ccc2c3c(n(C)c2c1)[C@H](CO)N(CC1CCOCC1)CC31CCN(C(=O)CN(C)C)CC1 | > 10 µM (inactive)
42 | CCS(=O)(=O)N1CCC2(CC1)CN(C(=O)Nc1c(C)noc1C)[C@H](CO)c1c2c2ccc(OC)cc2n1C | > 10 µM (inactive)
43 | O=C(CC(F)(F)F)N1C[C@@H]2[C@H](c3ccccc31)[C@H](CO)N2CC1CCOCC1 | > 10 µM (inactive)
44 | CC(=O)N1[C@@H]2c3ccc(-c4cccc(F)c4)c(=O)n3C[C@@H]2[C@@H](CO)[C@@H]1C(=O)NCCCN(C)C | > 10 µM (inactive)
45 | CCCNC(=O)N1[C@H](C#N)[C@H](c2ccccc2-c2ccccc2F)[C@@H]1CO | > 10 µM (inactive)
46 | Cn1cnc(CCNC(=O)C[C@@H]2CC[C@H]3[C@@H](COC[C@H](O)CN3C(=O)C3CC3)O2)c1 | > 10 µM (inactive)
47 | CCCNC(=O)N1CC2(CN(C(=O)Cc3cccnc3)C2)c2c([nH]c3cc(OC)ccc23)[C@H]1CO | > 10 µM (inactive)
48 | O=C(Cc1ccccn1)N1CC2(C1)[C@H](c1ccccc1)[C@@H](CO)N2C(=O)c1cccnc1 | > 10 µM (inactive)

Row | Structure (SMILES) | active concentration
49 | CC(C)C#Cc1ccc([C@@H]2[C@@H](CO)N3C(=O)CN(C(=O)c4ccc5c(c4)OCO5)C[C@H]23)cc1 | > 10 µM (inactive)
50 | CCCNC(=O)N1CC2(C1)[C@H](c1ccccc1)[C@@H](CO)N2Cc1cccc(Cl)c1 | > 10 µM (inactive)
51 | CN1c2ccc(C3=CCCCC3)cc2[C@H]2[C@H](CCN2C(=O)C2CCCC2)[C@@H]1CO | > 10 µM (inactive)
52 | COCC(=O)N1[C@H](C#N)[C@H](c2ccccc2-c2ccccc2F)[C@H]1CO | > 10 µM (inactive)
53 | CCCNC(=O)N1CC(=O)N2[C@H](CO)[C@@H](c3ccc(C#CCC4CCCC4)cc3)[C@H]2C1 | > 10 µM (inactive)
54 | C/C=C/c1ccc([C@H]2[C@@H](CO)N(CC3CCCC3)C23CN(C(=O)CC)C3)cc1 | > 10 µM (inactive)
55 | CCC(=O)N1C[C@H]2[C@@H](c3ccccc31)[C@H](CO)N2C(=O)CC | > 10 µM (inactive)
56 | N#C[C@H]1[C@@H](c2ccccc2-c2ccccc2F)[C@@H](CO)N1C(=O)Cc1ccccc1 | > 10 µM (inactive)
57 | OC[C@@H]1[C@@H]2c3ccccc3NC[C@@H]2N1Cc1ccccc1Cl | > 10 µM (inactive)
58 | COc1ccccc1CN1[C@@H](CO)[C@@H]2c3ccccc3N(C(=O)c3cccnc3)C[C@@H]21 | > 10 µM (inactive)
59 | CN1C(=O)c2cc(NC(=O)C3CCOCC3)ccc2OC[C@H]2O[C@@H](CC(=O)NCCc3ccncc3)CC[C@H]21 | > 10 µM (inactive)
60 | CN1C(=O)c2cc(NC(=O)c3cccc(F)c3)ccc2OC[C@H]2O[C@H](CC(=O)NCC3CCCCC3)CC[C@@H]21 | > 10 µM (inactive)
61 | CN1C(=O)c2cc(NS(C)(=O)=O)ccc2OC[C@H]2O[C@@H](CC(=O)N3CCOCC3)CC[C@@H]21 | > 10 µM (inactive)
62 | O=C(C[C@@H]1CC[C@@H]2[C@H](COC[C@@H](O)CN2Cc2nccs2)O1)NCc1ccccc1 | > 10 µM (inactive)
63 | COc1ccc2c3c([nH]c2c1)[C@@H](CO)N(C(=O)Nc1ccc(F)cc1)CC31CN(Cc2cc(-c3ccccc3)on2)C1 | > 10 µM (inactive)
64 | O=C(CC(F)(F)F)N1C[C@H]2[C@@H](c3ccccc31)[C@@H](CO)N2CC1CCOCC1 | > 10 µM (inactive)
65 | CN1C(=O)c2cc(NC(=O)C3CCOCC3)ccc2OC[C@@H]2O[C@@H](CC(=O)NCCc3ccncc3)CC[C@H]21 | > 10 µM (inactive)
66 | COC(=O)C[C@H]1CC[C@@H]2[C@@H](COc3ccc(NS(=O)(=O)c4ccccc4Cl)cc3C(=O)N2C)O1 | > 10 µM (inactive)
67 | COc1cccc(S(=O)(=O)N2CCCCN3[C@@H](CO)[C@@H](c4ccc(C#CCC(C)C)cc4)[C@@H]3C2)c1 | > 10 µM (inactive)
68 | COCC(=O)N1[C@H](C#N)[C@H](c2ccccc2-c2ccc(C)cc2)[C@@H]1CO | > 10 µM (inactive)
69 | CCCNC(=O)N1CC(=O)N2[C@@H](CO)[C@@H](c3ccc(C#CCC4CCCC4)cc3)[C@@H]2C1 | > 10 µM (inactive)
70 | O=C(C[C@@H]1CC[C@@H]2[C@H](COC[C@@H](O)CN2S(=O)(=O)c2cccc(Cl)c2)O1)Nc1ccc(-c2ccccc2)cc1 | > 10 µM (inactive)
